Assay results taken from patent publication US20250186438A1, “TREATMENT OF CLEAR CELL RENAL CELL CARCINOMA” (RACE ONCOLOGY LTD, priority 2022, published 2025).
Structures can show the parent of a compound that is named as a salt. Where two headings read alike, the source gives them in different places.

Tests used:
[1] = tested on: RCC4 EV cells (VHL(−) mutant); assay: Resazurin cell viability assay (combination synergy analysis; cytotoxic IC50); settings: Homo sapiens, RCC4, 72 h, read-out: Cytotoxic IC50
Protocol: (§1) Cell viability was determined using a resazurin metabolic activity assay.
(§2) Resazurin is metabolised into the red-fluorescent resorufin by metabolically active cells. […] Graphpad Prism 9 software was used to generate graphs. Drug IC50 values were determined by cubic spline-lowess regression analysis using Prism 9. At least three independent replicates were performed for each cell line and each drug combination, and data is represented as mean±standard error of the mean (SEM). The culture conditions for each cell line are described below.
(§3) Detail on each of the methods is provided below.
(§4) Using the Henderson-Hasselbalch, Michaelis-Menten, Scatchard, and Hill equations, Chou and Talaly derived the “median-effect” equation to model the median effect dose and sigmoidicity of the dose-response curve, using the inputted doses and corresponding dose-effects. Chou and Talalay also coined the term “CombinationIndex (CI)” to evaluate the degree of synergy between two compounds, defined as: […]
(§5) Within SynergyFinder the Bliss model was used. This model quantifies the degree of synergy as the multiplicative effect of single drugs as if they acted independently. This independence model assumes a stochastic process in which two drugs elicit their effects independently, and the expected combination effect can be calculated based on the probability of independent events.

[2] = tested on: RCC4 EV cells (VHL(−) mutant); assay: Clonogenicity assay (colony formation); type: cell-based; settings: Homo sapiens, ccRCC, VHL status Mut, 96 h drug then 96 h drug-free, read-out: Clonogenic IC50
Protocol: (§6) Clonogenicity assays—Clonogenicity assays were used to determine the colony-forming ability of cells treated with Zantrene. RCC4EV and RCC4 VHL Cells were seeded into 6-well plates at 1000 cells/well and allowed to adhere for 24 h. […] Drug-containing media was removed and replaced with freshmedia (without drug) and cultured for an additional 96 h to allow the formation of cell colonies. At endpoint, media was removed from wells and cells washed with cold PBS twice. Cells were fixed with ice-cold methanol for 10 minutes on ice followed immediately by staining with crystal violet solution (0.5% crystal violet, 25% methanol in PBS) at room temperature. Excess crystal violet solution was washed away and pictures of plates capturedon a ChemiDoc MP Imaging System (Bio-Rad). Images were analysed using the ColonyArea plugin [Guzman C. et al (2014), “ColonyArea: an ImageJ plugin to automatically quantify colony formation in clonogenic assays”, PLoS One, 9(3):e92444] for ImageJ [Schneider C. A. et at (2012), “NIH Image to ImageJ: 25 years of image analysis”, Nat Methods 9(7):671-675] and the percent area of the well filled by colonies determined and presented as % of untreated cells using Prism 9. Four independent replicates were performed for each cell line and data is represented as mean±SEM.

[3] = tested on: RCC4 VHL cells (VHL rescue line); assay: Clonogenicity assay (colony formation); type: cell-based; settings: Homo sapiens, ccRCC, VHL status Mut + WT, 96 h drug then 96 h drug-free, read-out: Clonogenic IC50
Protocol: as §6

[4] = cited from earlier work
786-O cells = assay: Resazurin cell viability assay, drug combinations with synergy analysis; type: cell-based, Human; settings: 786-0 cell line; each drug in combination with zantrene; FIG. 1-3
Protocol: as §1, §2, §3
It estimates the expected additive effect of two drugs using the fractional product of the effect of each drug alone, ie:
An observed Fa(Drug1+Drug2) value greater than the expected Fa(Drug1+Drug2) value result indicates synergy, whereas an observed Fa(Drug1+Drug2) lower than the expected value indicates antagonism.
as §4, §5

[5] = 5-day schedule of 60 min infusions
[6] = another trial, doses of 80-250 mg/m2
[7] = patients, 90 min infusion at 260 mg/m2, biphasic elimination
[8] = patients, 90 min infusion at 260 mg/m2
[9] = single dose study, triphasic elimination, first of three
[10] = single dose study, triphasic elimination, second of three

Structure (SMILES): C(=NNC1=NCCN1)c1c2ccccc2c(C=NNC2=NCCN2)c2ccccc12 [bisantrene, 9,10-anthracenedicarboxaldehyde bis[(4,5 dihydro-1H-imidazo-2-yl)hydrazine]dihydrochloride]
- IC50 [1]: 907 nM
- IC50 [2]: 167 nM
- IC50 [3]: 483 nM
- Dose excreted in the urine [4, 5]: 7.1%
- t½ α [4, 5]: 0.9 h
- t½ β [4, 5]: 9.7 h
- Plasma concentration ([4]; 72 h infusion study, dose of 56 mg/m2): 12 ± 6 ng/mL
- Plasma concentration ([4]; 72 h infusion study, dose of 260 mg/m2): 55 ± 8 ng/mL
- Plasma clearance ([4]; 72 h infusion study): 1306±179 mL/min/m2
- Calculated volume of distribution [4, 6]: 42.1 ± 5.9 L/kg
- Clearance [4, 6]: 17.425 ± 0.85 mL/min/kg
- Initial half-life [4, 6]: 0.6 h
- Terminal half-life [4, 6]: 24.7 h
- Administered dose excreted unchanged in the urine ([4]; in 24 h, 90 min infusion at 260 mg/m2): 11.3%
- Urinary excretion of the dose ([4]; in 24 h, 72 h infusion study): 4.6%
- Volume of distribution ([4]; one report, interpreted as tissue sequestration with depot effect): 687 L/m2
- Administered dose found in the urine ([4]; over 96 h, doses of 80-250 mg/m2): 3.4±1.1%
- Initial half-life [4, 7]: 1.08 ± 0.25 h
- Terminal half-life [4, 7]: 19.03 ± 3.77 h
- Plasma clearance [4, 8]: 735 mL/min/m2
- Steady state volume of distribution (Vdss) [4, 8]: 1845 L/m2
- t½ α [4, 9]: 0.0573 h
- t½ β [4, 9]: 1.33 h
- t½ γ [4, 9]: 26.13 h
- t½ α [4, 10]: 0.05 h
- t½ β [4, 10]: 1 h
- t½ γ [4, 10]: 8 h

Structure (SMILES): CO[C@H]1C[C@@H]2CC[C@@H](C)[C@@](O)(O2)C(=O)C(=O)N2CCCC[C@H]2C(=O)O[C@H]([C@H](C)C[C@@H]2CC[C@@H](OCCO)[C@H](OC)C2)CC(=O)[C@H](C)/C=C(\C)[C@@H](O)[C@@H](OC)C(=O)[C@H](C)C[C@H](C)/C=C/C=C/C=C/1C [everolimus]
- Combination effect with zantrene, method of Webb analysis (786-O cells): Synergy

Structure (SMILES): COc1cc2nccc(Oc3ccc(NC(=O)NC4CC4)c(Cl)c3)c2cc1C(N)=O [lenvatinib]
- Combination effect with zantrene, method of Webb analysis (786-O cells): strongest synergy

Structure (SMILES): CNC(=O)c1cc(Oc2ccc(NC(=O)Nc3ccc(Cl)c(C(F)(F)F)c3)cc2)ccn1 [sorafenib]
- Combination effect with zantrene, method of Webb analysis (786-O cells): Synergy
